According to ChEMBL document CHEMBL1131941, “Synthesis and biological evaluation of alpha,alpha-difluorobenzylphosphonic acid derivatives as small molecular inhibitors of protein-tyrosine phosphatase 1B” (Bioorg Med Chem Lett, 1999):

Assays:
[1] = biological target: T1, Tyrosine-protein phosphatase non-receptor type 1 (Homo sapiens, UniProt P18031); experiment: Inhibitory potency for the protein tyrosine phosphatase (PTP 1B)-catalyzed hydrolysis of p-nitrophenol phosphate; type: functional
T1 sequence (P18031 whole entry): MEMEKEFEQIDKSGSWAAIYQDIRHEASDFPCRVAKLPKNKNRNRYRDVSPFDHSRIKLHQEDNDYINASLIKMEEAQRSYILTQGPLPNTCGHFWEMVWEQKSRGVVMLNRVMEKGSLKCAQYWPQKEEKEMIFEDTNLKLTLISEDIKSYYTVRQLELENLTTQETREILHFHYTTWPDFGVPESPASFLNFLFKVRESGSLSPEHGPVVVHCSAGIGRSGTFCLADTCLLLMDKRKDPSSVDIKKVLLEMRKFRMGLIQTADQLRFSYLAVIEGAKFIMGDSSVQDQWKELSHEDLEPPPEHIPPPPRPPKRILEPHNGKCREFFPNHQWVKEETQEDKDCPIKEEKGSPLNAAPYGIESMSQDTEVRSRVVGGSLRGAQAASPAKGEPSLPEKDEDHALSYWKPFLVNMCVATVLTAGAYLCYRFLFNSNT

[2] = biological target: T1, Tyrosine-protein phosphatase non-receptor type 1; experiment: Inhibitory potency for the protein tyrosine phosphatase (PTP 1B)-catalyzed hydrolysis of p-nitrophenol phosphate; No inhibition; type: functional

Row | Compound | IC50 [1] | IC50 [2]
1 | COc1ccc(-c2ccc(C(F)(F)P(=O)(O)O)cc2)cc1 | 451 µM | –
2 | O=P(O)(O)C(F)(F)c1ccc(/C=C/c2ccccc2)cc1 | 450 µM | –
3 | C#Cc1ccc(C(F)(F)P(=O)(O)O)cc1 | 77.5 µM | –
4 | C#Cc1cccc(C(F)(F)P(=O)(O)O)c1 | 19 µM | –
5 | O=P(O)(O)C(F)(F)c1cccc(/C=C/c2ccccc2)c1 | 386 µM | –
6 | O=P(O)(O)C(F)(F)c1ccc(-c2ccccc2)cc1 | 779 µM | –
7 | O=P(O)(O)C(F)(F)c1ccccc1 | – | Not Active

The next lines start with results.

Row | IC50 [1] | Compound | IC50 [2]
8 | 128 µM | O=P(O)(O)C(F)(F)c1ccc(C#Cc2ccccc2)cc1 | –
9 | 167 µM | CS(=O)(=O)Nc1cc(C(F)(F)P(=O)(O)O)ccc1C#Cc1ccccc1 | –
10 | 176 µM | CS(=O)(=O)Nc1cc(C(F)(F)P(=O)(O)O)ccc1/C=C/c1ccccc1 | –
11 | 136 µM | O=P(O)(O)C(F)(F)c1cccc(C#Cc2ccccc2)c1 | –
12 | 57.9 µM | CS(=O)(=O)N(c1cc(C(F)(F)P(=O)(O)O)ccc1/C=C/c1ccccc1)S(C)(=O)=O | –
13 | 88.7 µM | CS(=O)(=O)N(c1cc(C(F)(F)P(=O)(O)O)ccc1C#Cc1ccccc1)S(C)(=O)=O | –
14 | 718 µM | O=P(O)(O)C(F)(F)c1ccc2ccccc2c1 | –
